The record followed here is ChEMBL document CHEMBL3608219, “New geranylated flavanones from the fruits of Paulownia catalpifolia Gong Tong with their anti-proliferative activity on lung cancer cells A549” (Bioorg Med Chem Lett, 2015).

Experiment [1] deals with A549. The experiment can be described thus: Antiproliferative activity against human A549 cells by MTT assay. In kind it is functional, cell-based.
Experiment [2] has as its system A549. Briefly: Cell cycle arrest in human A549 cells assessed as accumulation at S phase at 10 uM after 24 hrs by flow cytometry analysis (reference value: 16.23 +/- 1.73%). It is filed as functional. A general note: Flow cytometry measures light scatter and fluorescence of single cells or particles in a stream.
Experiment [3] relates to A549. Briefly: Cell cycle arrest in human A549 cells assessed as accumulation at G1 phase at 10 uM after 24 hrs by flow cytometry analysis (reference value: 68.78 +/- 2.43%). It is filed as functional.
Experiment [4] deals with A549. The experiment can be described thus: Cell cycle arrest in human A549 cells assessed as accumulation at G2/M phase at 10 uM after 24 hrs by flow cytometry analysis (reference value: 14.18 +/- 1.03%). In kind it is functional.

A word on the IC50: it is the concentration needed to halve the response being measured. A lower IC50 goes with greater potency in that assay. Turning to `CC(C)=CCC/C(C)=C\Cc1c(O)c(-c2c(O)c(C/C=C(/C)CCC=C(C)C)c3c(c2O)C(=O)CC(c2ccc(O)c(O)c2)O3)c(O)c2c1OC(c1ccc(O)c(O)c1)CC2=O` (configuration not stated), half-maximal inhibition in the experiment with A549 [1] (IC50) required 8.9 µM. For the same molecule, the Activity in the experiment on A549 [2] amounted to 5.05%; with A549 [3], 88.88%; in the experiment on A549 [4], 5.05%.

On to `COc1cc(C2CC(=O)c3c(O)cc(O)c(C/C=C(\C)CCCC(C)(C)O)c3O2)cc(O)c1O` (configuration not stated), for which the IC50 in the experiment with A549 [1] stood at 23.7 µM.

As to `COc1cc(C2CC(=O)c3c(cc(O)c(C/C=C(\C)CCCC(C)(C)O)c3O)O2)cc(O)c1O` (configuration not stated), inhibition with A549 [1] was half-maximal at 22.1 µM (IC50).

Molecule `C=C1C(=O)[C@]23[C@H](O)[C@H]1CC[C@H]2[C@@]12CO[C@]3(O)[C@@H](O)[C@@H]1C(C)(C)CC[C@@H]2O` [ORIDONIN] gave an IC50 with A549 [1] of 18.7 µM.
